Data reported in ChEMBL document CHEMBL1156163, “(18)F Labeled benzimidazole derivatives as potential radiotracer for positron emission tomography (PET) tumor imaging” (Bioorg Med Chem, 2010).

Experiments:
Heart [1] = assay: Biodistribution in mouse S180 cells xenografted Kunming mouse heart at 10 to 20 uCi, iv after 5 mins by gamma counting; type: ADME, organism-based, CCRF S-180; settings: in vivo
Blood [2] = assay: Biodistribution in mouse S180 cells xenografted Kunming mouse blood at 10 to 20 uCi, iv after 120 mins by gamma counting; type: ADME, organism-based, CCRF S-180; settings: in vivo, 2 h
Heart [3] = assay: Biodistribution in mouse S180 cells xenografted Kunming mouse heart at 10 to 20 uCi, iv after 15 mins by gamma counting; type: ADME, organism-based, CCRF S-180; settings: in vivo, 0.25 h
Blood [4] = assay: Biodistribution in mouse S180 cells xenografted Kunming mouse blood at 10 to 20 uCi, iv after 60 mins by gamma counting; type: ADME, organism-based, CCRF S-180; settings: in vivo, 1 h
Lung [5] = assay: Biodistribution in mouse S180 cells xenografted Kunming mouse lung at 10 to 20 uCi, iv after 15 mins by gamma counting; type: ADME, organism-based, CCRF S-180; settings: in vivo, 0.25 h
Lung [6] = assay: Biodistribution in mouse S180 cells xenografted Kunming mouse lung at 10 to 20 uCi, iv after 120 mins by gamma counting; type: ADME, organism-based, CCRF S-180; settings: in vivo, 2 h
Heart [7] = assay: Biodistribution in mouse S180 cells xenografted Kunming mouse heart at 10 to 20 uCi, iv after 60 mins by gamma counting; type: ADME, organism-based, CCRF S-180; settings: in vivo, 1 h
[8] = Ratio of drug uptake in tumor to muscle of mouse S180 cells xenografted Kunming mouse at 10 to 20 uCi, iv after 60 mins by gamma counting; type: ADME, organism-based, CCRF S-180; settings: in vivo, 1 h
Heart [9] = assay: Biodistribution in mouse S180 cells xenografted Kunming mouse heart at 10 to 20 uCi, iv after 120 mins by gamma counting; type: ADME, organism-based, CCRF S-180; settings: in vivo, 2 h
[10] = Ratio of drug uptake in tumor to muscle of mouse S180 cells xenografted Kunming mouse at 10 to 20 uCi, iv after 15 mins by gamma counting; type: ADME, organism-based, CCRF S-180; settings: in vivo, 0.25 h
Blood [11] = assay: Biodistribution in mouse S180 cells xenografted Kunming mouse blood at 10 to 20 uCi, iv after 5 mins by gamma counting; type: ADME, organism-based, CCRF S-180; settings: in vivo
[12] = Ratio of drug uptake in tumor to brain of mouse S180 cells xenografted Kunming mouse at 10 to 20 uCi, iv after 120 mins by gamma counting; type: ADME, organism-based, CCRF S-180; settings: in vivo, 2 h
Pancreas [13] = assay: Biodistribution in mouse S180 cells xenografted Kunming mouse pancreas at 10 to 20 uCi, iv after 5 mins by gamma counting; type: ADME, organism-based, CCRF S-180; settings: in vivo
[14] = Ratio of drug uptake in tumor to brain of mouse S180 cells xenografted Kunming mouse at 10 to 20 uCi, iv after 60 mins by gamma counting; type: ADME, organism-based, CCRF S-180; settings: in vivo, 1 h
[15] = Ratio of drug uptake in tumor to muscle of mouse S180 cells xenografted Kunming mouse at 10 to 20 uCi, iv after 5 mins by gamma counting; type: ADME, organism-based, CCRF S-180; settings: in vivo
Kidney [16] = assay: Biodistribution in mouse S180 cells xenografted Kunming mouse kidney at 10 to 20 uCi, iv after 30 mins by gamma counting; type: ADME, organism-based, CCRF S-180; settings: in vivo, 0.5 h
[17] = Ratio of drug uptake in tumor to blood of mouse S180 cells xenografted Kunming mouse at 10 to 20 uCi, iv after 120 mins by gamma counting; type: ADME, organism-based, CCRF S-180; settings: tumour, 2 h
Muscle tissue [18] = assay: Biodistribution in mouse S180 cells xenografted Kunming mouse muscle at 10 to 20 uCi, iv after 60 mins by gamma counting; type: ADME, organism-based, CCRF S-180; settings: in vivo, 1 h
[19] = Biodistribution in mouse S180 cells xenografted Kunming mouse tumor at 10 to 20 uCi, iv after 120 mins by gamma counting; type: ADME, organism-based, Neoplasm, CCRF S-180; settings: in vivo, 2 h
[20] = Biodistribution in mouse S180 cells xenografted Kunming mouse tumor at 10 to 20 uCi, iv after 5 mins by gamma counting; type: ADME, organism-based, Neoplasm, CCRF S-180; settings: in vivo
Pancreas [21] = assay: Biodistribution in mouse S180 cells xenografted Kunming mouse pancreas at 10 to 20 uCi, iv after 15 mins by gamma counting; type: ADME, organism-based, CCRF S-180; settings: in vivo, 0.25 h
Muscle tissue [22] = assay: Biodistribution in mouse S180 cells xenografted Kunming mouse muscle at 10 to 20 uCi, iv after 15 mins by gamma counting; type: ADME, organism-based, CCRF S-180; settings: in vivo, 0.25 h
Muscle tissue [23] = assay: Biodistribution in mouse S180 cells xenografted Kunming mouse muscle at 10 to 20 uCi, iv after 5 mins by gamma counting; type: ADME, organism-based, CCRF S-180; settings: in vivo
Kidney [24] = assay: Biodistribution in mouse S180 cells xenografted Kunming mouse kidney at 10 to 20 uCi, iv after 60 mins by gamma counting; type: ADME, organism-based, CCRF S-180; settings: in vivo, 1 h
[25] = Biodistribution in mouse S180 cells xenografted Kunming mouse tumor at 10 to 20 uCi, iv after 30 mins by gamma counting; type: ADME, organism-based, Neoplasm, CCRF S-180; settings: in vivo, 0.5 h
Muscle tissue [26] = assay: Biodistribution in mouse S180 cells xenografted Kunming mouse muscle at 10 to 20 uCi, iv after 120 mins by gamma counting; type: ADME, organism-based, CCRF S-180; settings: in vivo, 2 h
Pancreas [27] = assay: Biodistribution in mouse S180 cells xenografted Kunming mouse pancreas at 10 to 20 uCi, iv after 120 mins by gamma counting; type: ADME, organism-based, CCRF S-180; settings: in vivo, 2 h
Pancreas [28] = assay: Biodistribution in mouse S180 cells xenografted Kunming mouse pancreas at 10 to 20 uCi, iv after 30 mins by gamma counting; type: ADME, organism-based, CCRF S-180; settings: in vivo, 0.5 h
Liver [29] = assay: Biodistribution in mouse S180 cells xenografted Kunming mouse liver at 10 to 20 uCi, iv after 60 mins by gamma counting; type: ADME, organism-based, CCRF S-180; settings: in vivo, 1 h
Liver [30] = assay: Biodistribution in mouse S180 cells xenografted Kunming mouse liver at 10 to 20 uCi, iv after 30 mins by gamma counting; type: ADME, organism-based, CCRF S-180; settings: in vivo, 0.5 h
Liver [31] = assay: Biodistribution in mouse S180 cells xenografted Kunming mouse liver at 10 to 20 uCi, iv after 5 mins by gamma counting; type: ADME, organism-based, CCRF S-180; settings: in vivo
Liver [32] = assay: Biodistribution in mouse S180 cells xenografted Kunming mouse liver at 10 to 20 uCi, iv after 120 mins by gamma counting; type: ADME, organism-based, CCRF S-180; settings: in vivo, 2 h
[33] = Ratio of drug uptake in tumor to blood of mouse S180 cells xenografted Kunming mouse at 10 to 20 uCi, iv after 5 mins by gamma counting; type: ADME, organism-based, CCRF S-180; settings: tumour
[34] = Ratio of drug uptake in tumor to muscle of mouse S180 cells xenografted Kunming mouse at 10 to 20 uCi, iv after 30 mins by gamma counting; type: ADME, organism-based, CCRF S-180; settings: in vivo, 0.5 h
[35] = Biodistribution in mouse S180 cells xenografted Kunming mouse tumor at 10 to 20 uCi, iv after 15 mins by gamma counting; type: ADME, organism-based, Neoplasm, CCRF S-180; settings: in vivo, 0.25 h
Lung [36] = assay: Biodistribution in mouse S180 cells xenografted Kunming mouse lung at 10 to 20 uCi, iv after 30 mins by gamma counting; type: ADME, organism-based, CCRF S-180; settings: in vivo, 0.5 h
Brain [37] = assay: Biodistribution in mouse S180 cells xenografted Kunming mouse brain at 10 to 20 uCi, iv after 60 mins by gamma counting; type: ADME, organism-based, CCRF S-180; settings: in vivo, 1 h
[38] = Ratio of drug uptake in tumor to muscle of mouse S180 cells xenografted Kunming mouse at 10 to 20 uCi, iv after 120 mins by gamma counting; type: ADME, organism-based, CCRF S-180; settings: in vivo, 2 h
Lung [39] = assay: Biodistribution in mouse S180 cells xenografted Kunming mouse lung at 10 to 20 uCi, iv after 60 mins by gamma counting; type: ADME, organism-based, CCRF S-180; settings: in vivo, 1 h
Liver [40] = assay: Biodistribution in mouse S180 cells xenografted Kunming mouse liver at 10 to 20 uCi, iv after 15 mins by gamma counting; type: ADME, organism-based, CCRF S-180; settings: in vivo, 0.25 h
Brain [41] = assay: Biodistribution in mouse S180 cells xenografted Kunming mouse brain at 10 to 20 uCi, iv after 15 mins by gamma counting; type: ADME, organism-based, CCRF S-180; settings: in vivo, 0.25 h
Brain [42] = assay: Biodistribution in mouse S180 cells xenografted Kunming mouse brain at 10 to 20 uCi, iv after 120 mins by gamma counting; type: ADME, organism-based, CCRF S-180; settings: in vivo, 2 h
Blood [43] = assay: Biodistribution in mouse S180 cells xenografted Kunming mouse blood at 10 to 20 uCi, iv after 30 mins by gamma counting; type: ADME, organism-based, CCRF S-180; settings: in vivo, 0.5 h

SMILES: OC[C@H]1O[C@@H](O)[C@H]([18F])[C@@H](O)[C@@H]1O [FLUDEOXYGLUCOSE-F18]
- Drug uptake (Heart [1]): 2.6 % ID/g
- Drug uptake (Blood [2]): 0.11 % ID/g
- Drug uptake (Heart [3]): 2.5 % ID/g
- Drug uptake (Blood [4]): 0.11 % ID/g
- Drug uptake (Lung [5]): 0.77 % ID/g
- Drug uptake (Lung [6]): 0.52 % ID/g
- Drug uptake (Heart [7]): 3.24 % ID/g
- Ratio [8]: 2.23
- Drug uptake (Heart [9]): 6.27 % ID/g
- Ratio [10]: 1.37
- Drug uptake (Blood [11]): 1.09 % ID/g
- Ratio [12]: 1.33
- Drug uptake (Pancreas [13]): 1.31 % ID/g
- Ratio [14]: 1.02
- Ratio [15]: 0.81
- Drug uptake (Kidney [16]): 0.61 % ID/g
- Ratio [17]: 15.85
- Drug uptake (Muscle tissue [18]): 0.97 % ID/g
- Drug uptake [19]: 1.7 % ID/g
- Drug uptake [20]: 1.27 % ID/g
- Drug uptake (Pancreas [21]): 0.95 % ID/g
- Drug uptake (Muscle tissue [22]): 1.14 % ID/g
- Drug uptake (Muscle tissue [23]): 1.56 % ID/g
- Drug uptake (Kidney [24]): 0.54 % ID/g
- Drug uptake [25]: 1.86 % ID/g
- Drug uptake (Muscle tissue [26]): 0.78 % ID/g
- Drug uptake (Pancreas [27]): 0.78 % ID/g
- Drug uptake (Pancreas [28]): 0.9 % ID/g
- Drug uptake (Liver [29]): 0.22 % ID/g
- Drug uptake (Liver [30]): 0.23 % ID/g
- Drug uptake (Liver [31]): 1.35 % ID/g
- Drug uptake (Liver [32]): 0.2 % ID/g
- Ratio [33]: 1.17
- Ratio [34]: 1.75
- Drug uptake [35]: 1.56 % ID/g
- Drug uptake (Lung [36]): 0.64 % ID/g
- Drug uptake (Brain [37]): 2.11 % ID/g
- Ratio [38]: 2.2
- Drug uptake (Lung [39]): 0.57 % ID/g
- Drug uptake (Liver [40]): 0.47 % ID/g
- Drug uptake (Brain [41]): 2.63 % ID/g
- Drug uptake (Brain [42]): 1.28 % ID/g
- Drug uptake (Blood [43]): 0.16 % ID/g
